Measured values published in publication PMC7281265, “Design, Synthesis, and Biological Evaluation of 1,2,3-Triazole-linked triazino[5,6-b]indole-benzene sulfonamide Conjugates as Potent Carbonic Anhydrase I, II, IX, and XIII Inhibitors” (Metabolites, 2020).

How the values were obtained:
hCA II = hCA II (Homo sapiens, UniProt P00918); assay: stopped-flow CO2 hydrase assay, hCA II
Description: (§1) The newly synthesized 1,2,3-triazole linked triazino[5,6-b]indole-benzene sulfonamide hybrids (6a–6o) were evaluated for their carbonic anhydrase inhibitory activity against a panel of carbonic anhydrases, i.e., hCA I, hCA II, hCA IX, and hCA XIII, by the stopped-flow CO2 hydrase assay method. Highly purified CA isoforms were employed, for which the kinetic parameters for the physiologic reaction (CO2 hydration) were measured (see the Experimental section for details), monitoring the color change produced by the formation of H^+ ions (and bicarbonate). […] All the newly synthesized analogs were evaluated in vitro for their inhibitory activity against a panel of recombinant CA isoforms, i.e., hCA I, hCA II, hCA IX, and hCA XIII, obtained inhouse, using the stopped-flow CO2 hydrase assay.
(§2) An SX.18 V-R Applied Photophysics (Oxford, UK) stopped-flow instrument was used to assay the catalytic inhibition of various CA enzymes [32]. […] IC50-s values were calculated from the enzyme activity (as kcat, see Table 2) with respect to the inhibitor concentration.

hCA IX = hCA IX (Homo sapiens, UniProt Q16790); assay: stopped-flow CO2 hydrase assay, hCA IX
Description: as §1, §2

hCA XIII = hCA XIII (Homo sapiens, UniProt Q8N1Q1); assay: stopped-flow CO2 hydrase assay, hCA XIII
Chain of hCA XIII (Q8N1Q1 whole entry): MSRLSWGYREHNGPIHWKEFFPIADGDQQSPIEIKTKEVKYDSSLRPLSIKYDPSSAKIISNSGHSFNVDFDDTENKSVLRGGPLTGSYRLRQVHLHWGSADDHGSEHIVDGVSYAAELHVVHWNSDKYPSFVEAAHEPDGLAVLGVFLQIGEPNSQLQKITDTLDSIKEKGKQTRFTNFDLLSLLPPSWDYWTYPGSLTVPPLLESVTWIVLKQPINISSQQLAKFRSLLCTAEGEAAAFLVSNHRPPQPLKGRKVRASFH
Description: as §1, §2

hCA I = hCA I (Homo sapiens, UniProt P00915); assay: stopped-flow CO2 hydrase assay, hCA I
Chain of hCA I (P00915 whole entry): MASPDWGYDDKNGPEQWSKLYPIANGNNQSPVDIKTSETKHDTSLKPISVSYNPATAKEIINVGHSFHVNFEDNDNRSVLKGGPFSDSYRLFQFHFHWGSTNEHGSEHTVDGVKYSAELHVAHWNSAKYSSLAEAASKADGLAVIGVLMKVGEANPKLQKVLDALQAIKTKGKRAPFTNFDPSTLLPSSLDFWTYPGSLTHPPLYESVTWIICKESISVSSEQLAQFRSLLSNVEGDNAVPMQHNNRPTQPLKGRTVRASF
Description: as §1, §2

In the case of Cn1c2ccccc2c2nnc(SCc3cn(-c4ccc(S(N)(=O)=O)cc4)nn3)nc21 [Compound 6a], the Ki (hCA II) is reported as 65.5 nM, the Ki (hCA IX) is reported as 286 nM and the Ki (hCA XIII) is reported as 77.8 nM. For the same molecule, the Ki (hCA I) was 910 nM and the melting point was 235 to 240 °C.
CCn1c2ccccc2c2nnc(SCc3cn(-c4ccc(S(N)(=O)=O)cc4)nn3)nc21 [Compound 6b] gave a Ki (hCA II) of 72 nM, a Ki (hCA IX) of 172 nM and a Ki (hCA XIII) of 69.8 nM. For the same molecule, the Ki (hCA I) was 642 nM and the melting point was 202 to 204 °C.
CCCn1c2ccccc2c2nnc(SCc3cn(-c4ccc(S(N)(=O)=O)cc4)nn3)nc21 [Compound 6c] gave a Ki (hCA II) of 88.7 nM, a Ki (hCA IX) of 219 nM and a Ki (hCA XIII) of 365 nM. It also gave a Ki (hCA I) of 3960 nM and a melting point of 261 to 263 °C.
In the case of CC(C)n1c2ccccc2c2nnc(SCc3cn(-c4ccc(S(N)(=O)=O)cc4)nn3)nc21 [Compound 6d], the Ki (hCA II) is reported as 20.9 nM, the Ki (hCA IX) is reported as 37.8 nM and the Ki (hCA XIII) is reported as 65.8 nM. It also gave a Ki (hCA I) of 315 nM and a melting point of 213 to 215 °C.
C=CCn1c2ccccc2c2nnc(SCc3cn(-c4ccc(S(N)(=O)=O)cc4)nn3)nc21 [Compound 6e] gave a Ki (hCA II) of 41.7 nM, a Ki (hCA IX) of 41.1 nM and a Ki (hCA XIII) of 627 nM. The Ki (hCA I) was 536 nM and the melting point was 230 to 232 °C.
Cn1c2ccc(F)cc2c2nnc(SCc3cn(-c4ccc(S(N)(=O)=O)cc4)nn3)nc21 [Compound 6f] showed a Ki (hCA II) of 59.6 nM, a Ki (hCA IX) of 41.3 nM and a Ki (hCA XIII) of 835 nM. The Ki (hCA I) was 766 nM and the melting point was 244 to 246 °C.
CCn1c2ccc(F)cc2c2nnc(SCc3cn(-c4ccc(S(N)(=O)=O)cc4)nn3)nc21 [Compound 6g] showed a Ki (hCA II) of 63.9 nM, a Ki (hCA IX) of 193 nM and a Ki (hCA XIII) of 675 nM. For the same molecule, the Ki (hCA I) was 699 nM and the melting point was 246 to 248 °C.
Molecule CCCn1c2ccc(F)cc2c2nnc(SCc3cn(-c4ccc(S(N)(=O)=O)cc4)nn3)nc21 [Compound 6h] has a Ki (hCA II) of 683 nM, a Ki (hCA IX) of 119 nM and a Ki (hCA XIII) of 1810 nM. For the same molecule, the Ki (hCA I) was 764 nM and the melting point was 240 to 242 °C.
In the case of CC(C)n1c2ccc(F)cc2c2nnc(SCc3cn(-c4ccc(S(N)(=O)=O)cc4)nn3)nc21 [Compound 6i], the Ki (hCA II) is reported as 7.7 nM, the Ki (hCA IX) is reported as 34.9 nM and the Ki (hCA XIII) is reported as 736 nM. The Ki (hCA I) was 379 nM and the melting point was 235 to 237 °C.
For C=CCn1c2ccc(F)cc2c2nnc(SCc3cn(-c4ccc(S(N)(=O)=O)cc4)nn3)nc21 [Compound 6j], the Ki (hCA II) was 73.7 nM, the Ki (hCA IX) was 402 nM and the Ki (hCA XIII) was 794 nM. It also gave a Ki (hCA I) of 4590 nM and a melting point of 245 to 247 °C.
Cn1c2ccc(Cl)cc2c2nnc(SCc3cn(-c4ccc(S(N)(=O)=O)cc4)nn3)nc21 [Compound 6k] showed a Ki (hCA II) of 253 nM, a Ki (hCA IX) of 331 nM and a Ki (hCA XIII) of 867 nM. It also gave a Ki (hCA I) of 5140 nM and a melting point of 243 to 248 °C.
Molecule CCn1c2ccc(Cl)cc2c2nnc(SCc3cn(-c4ccc(S(N)(=O)=O)cc4)nn3)nc21 [Compound 6l] has a Ki (hCA II) of 185 nM, a Ki (hCA IX) of 150 nM and a Ki (hCA XIII) of 3980 nM. The Ki (hCA I) was 2840 nM and the melting point was 252 to 256 °C.
Molecule CCCn1c2ccc(Cl)cc2c2nnc(SCc3cn(-c4ccc(S(N)(=O)=O)cc4)nn3)nc21 [Compound 6m] has a Ki (hCA II) of 61.7 nM, a Ki (hCA IX) of 204 nM and a Ki (hCA XIII) of 824 nM. The Ki (hCA I) was 6510 nM and the melting point was 257 to 262 °C.
Molecule CC(C)n1c2ccc(Cl)cc2c2nnc(SCc3cn(-c4ccc(S(N)(=O)=O)cc4)nn3)nc21 [Compound 6n] has a Ki (hCA II) of 179 nM, a Ki (hCA IX) of 321 nM and a Ki (hCA XIII) of 91.3 nM. For the same molecule, the Ki (hCA I) was 572 nM and the melting point was 263 to 265 °C.
C=CCn1c2ccc(Cl)cc2c2nnc(SCc3cn(-c4ccc(S(N)(=O)=O)cc4)nn3)nc21 [Compound 6o] gave a Ki (hCA II) of 97.1 nM, a Ki (hCA IX) of 325 nM and a Ki (hCA XIII) of 2300 nM. It also gave a Ki (hCA I) of 694 nM and a melting point of 261 to 264 °C.
